Here are results for four compounds from US6376707B1, “Crystal polymorphism of aminoethylphenoxyacetic acid derivative” (Kissei Pharmaceutical Co., Ltd., priority 1999, dated 2002).

Each structure is given as a SMILES string. pEC50: −log10 of the molar value. Converted amounts (≈) assume the structure as drawn. Read-outs that look alike come from different tables or passages of the source.

In one data set the target is T1, β2-Adrenoceptor (Rattus norvegicus, UniProt P10608).
T1 construct: The uteri of pregnant SD rats (pregnancy day of 21) were isolated; from tissue; host or cells: isolated uterus (longitudinal myometrial preparations) of pregnant SD rats, day 21
T1 sequence (P10608 whole entry): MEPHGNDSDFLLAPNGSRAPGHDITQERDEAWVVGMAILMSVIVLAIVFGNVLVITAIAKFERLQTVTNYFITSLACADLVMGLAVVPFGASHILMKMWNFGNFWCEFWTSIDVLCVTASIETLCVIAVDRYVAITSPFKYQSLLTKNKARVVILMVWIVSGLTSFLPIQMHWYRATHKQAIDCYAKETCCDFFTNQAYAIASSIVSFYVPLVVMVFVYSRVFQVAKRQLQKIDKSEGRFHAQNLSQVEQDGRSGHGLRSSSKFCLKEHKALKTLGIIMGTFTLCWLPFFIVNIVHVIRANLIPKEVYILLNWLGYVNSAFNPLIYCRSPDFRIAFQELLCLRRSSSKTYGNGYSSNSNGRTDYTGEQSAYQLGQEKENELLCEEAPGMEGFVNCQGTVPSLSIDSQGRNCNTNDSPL
Briefly: β2-Adrenoceptor stimulating effect: spontaneous contractions of isolated pregnant rat uterus (Magnus method). Type of data set: cell-based. The following applies: isolated uterus of pregnant SD rats (day 21), cumulative addition every 5 minutes, 37° C.; read-out: 50% inhibitory drug concentration (EC50 value), uterine contractions. On the procedure:
The uteri of pregnant SD rats (pregnancy day of 21) were isolated, and longitudinal preparations of approximately 15 mm in length and approximately 5 mm in width free from the basal plate were prepared. The experiment was conducted according to the Magnus method. The preparations with a tension of 1 g were exposed to Locke-Ringer solution maintained at 37° C. and gassed with a mixture of 95% of oxygen and 5% of carbon dioxide. Spontaneous contractions of the myometrium were isometrically measured with a force-displacement transducer and recorded by a rectigram. 2-[4-[2-[[(1S, 2R)-2-Hydroxy-2-(4-hydroxyphenyl)-1-methylethyl]amino]ethyl]-phenoxy]acetic acid was cumulatively added to the Magnus bath every 5 minutes. The drug efficacy was evaluated by comparing the sum of uterine contractions during 5 minutes after the addition of the drug with that during 5 minutes before the addition of the drug which was expressed as 100%.

A short description of data set [1]: Hygroscopicity (moisture absorption on standing under relative humidity). Type of data set: physicochemical. The method, then: (§1) As examples of crystalline polymorphs other than the crystalline polymorph of the present invention, there are the crystalline polymorph (crystalline form γ) having strong diffraction peaks (diffraction angle: 2θ±0.1°) at 18.1, 19.7, 20.3, 21.2 and 22.4° and the crystalline polymorph (crystalline form […]) having strong diffraction peaks (diffraction angle: 2θ±0.1°) at 10.2, 13.2, 17.6, 19.8 and 20.6° in powder X-ray diffraction pattern. […] Thus, the crystalline polymorph of the present invention has an excellent low hygroscopicity and good storage. […] Thus, the crystalline polymorph of the present invention is favorable to oral administration and has a favorable efficiency in preparing liquid preparations such as injections.

A further data set is described as follows: Solubility in water. The following applies: in water (37° C.). Format: physicochemical. On the procedure: as §1
A short description of data set [2]: Drug absorption on oral administration. Type of data set: in vivo. The following applies: orally administered. On the procedure: as §1

`C[C@H](NCCc1ccc(OCC(=O)O)cc1)[C@H](O)c1ccc(O)cc1` [2-[4-[2-[[(1S,2R)-2-hydroxy-2-(4-hydroxy-phenyl)-1-methylethyl]amino]ethyl]phenoxy]acetic acid]: on β2-Adrenoceptor, the pEC50 is 7.51. Turning to `C[C@H](NCCc1ccc(OCC(=O)O)cc1)[C@H](O)c1ccc(O)cc1` [crystalline form γ, 2-[4-[2-[[(1S,2R)-2-Hydroxy-2-(4-hydroxyphenyl)-1-methyl-ethyl]amino]ethyl]phenoxy]acetic Acid (Crystalline Form γ)], in data set [1] (conditions not given), the “moisture absorption (hygroscopicity)” value is “easily absorb moisture to convert into their hydrates”. In the case of `C[C@H](NCCc1ccc(OCC(=O)O)cc1)[C@H](O)c1ccc(O)cc1` [crystalline form δ, 2-[4-[2-[[(1S,2R)-2-Hydroxy-2-(4-hydroxyphenyl)-1-methyl-ethyl]amino]ethyl]phenoxy]acetic Acid (Crystalline Form δ)], the solubility in “Solubility in water” was 1800 µg/mL (≈ 5.21 mM). Take `CC(NCCc1ccc(OCC(=O)O)cc1)C(O)c1ccc(O)cc1` [crystalline form α, 2-[4-[2-[[(1S,2R)-2-Hydroxy-2-(4-hydroxyphenyl)-1-methyl-ethyl]amino]ethyl]phenoxy]acetic Acid (Crystalline Form α)]: the solubility in the data set “Solubility in water” (read-out: solubility) is 2700 µg/mL (≈ 7.82 mM). Besides, the drug absorption result in data set [2] is given as “excellent drug absorption”. Besides, the “moisture absorption (hygroscopicity)” value in data set [1] (allowed to stand for 10 days under relative humidities of 51-93%) is listed as “does not absorb moisture”.
